Assay results: patent publication US20230295197A1, “STAT5 and STAT6 Degraders and Uses Thereof” (REGENTS OF THE UNIVERSITY OF MICHICAN, priority 2022, published 2023)
Read-outs that look alike come from different tables or passages of the source.

Assays:
[1] = system: STAT5; assay: Immunoblotting (Western blot) analysis of STAT5 degradation efficiency of degraders in treated cells; assay type: cell-based
Summary of the method: (§1)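 About 1 million cells per point, grown in 10% FBS medium at 37 °C/5% CO2, were exposed to compound at the indicated concentrations and times, then lysed in RIPA buffer with protease and phosphatase inhibitors. Equal protein (20-40 μg) was resolved by SDS-PAGE, blotted to PVDF, and probed with anti-STAT5, anti-STAT6 and anti-GAPDH antibodies.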

[2] = target: T1, STAT6 (Homo sapiens, UniProt P42226); assay: Immunoblotting (Western blot) analysis of STAT6 degradation efficiency of degraders in treated cells; assay type: cell-based; settings: MOLM-16 cells, read-out: DC50 S6 MOLM-16
T1 construct: endogenous in cells; host or cells: MOLM-16, KU-812, SKNO1, MB231, L1236
T1 sequence (P42226 1-847): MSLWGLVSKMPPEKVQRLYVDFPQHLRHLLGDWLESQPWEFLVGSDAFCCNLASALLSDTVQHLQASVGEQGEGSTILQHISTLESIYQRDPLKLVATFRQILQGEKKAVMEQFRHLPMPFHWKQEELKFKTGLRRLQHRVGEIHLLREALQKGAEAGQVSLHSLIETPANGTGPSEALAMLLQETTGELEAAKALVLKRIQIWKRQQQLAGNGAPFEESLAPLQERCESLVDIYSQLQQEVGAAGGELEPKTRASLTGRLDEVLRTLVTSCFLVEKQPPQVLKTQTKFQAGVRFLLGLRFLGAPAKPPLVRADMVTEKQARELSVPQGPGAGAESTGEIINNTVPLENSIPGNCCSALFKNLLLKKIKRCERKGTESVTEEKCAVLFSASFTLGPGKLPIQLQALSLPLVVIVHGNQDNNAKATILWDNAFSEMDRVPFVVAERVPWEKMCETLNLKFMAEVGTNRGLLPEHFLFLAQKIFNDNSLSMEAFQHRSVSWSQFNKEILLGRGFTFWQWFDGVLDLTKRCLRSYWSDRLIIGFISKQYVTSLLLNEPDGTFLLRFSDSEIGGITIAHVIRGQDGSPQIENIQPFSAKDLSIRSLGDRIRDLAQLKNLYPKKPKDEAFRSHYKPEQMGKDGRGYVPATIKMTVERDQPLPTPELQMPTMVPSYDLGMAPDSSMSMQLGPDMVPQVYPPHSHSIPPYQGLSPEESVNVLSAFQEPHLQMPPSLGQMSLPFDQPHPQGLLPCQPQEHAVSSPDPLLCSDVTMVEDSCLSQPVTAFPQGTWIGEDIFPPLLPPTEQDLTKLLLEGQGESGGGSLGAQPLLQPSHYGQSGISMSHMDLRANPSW
Summary of the method: as §1

[3] = MOLM-16 cells, numeric bound, read-out: DC50 S5 MOLM-16
[4] = SKNO1 cells, read-out: DC50 S5 SKNO1
[5] = KU-812 cells, read-out: DC50 S5 KU-812
[6] = MOLM-16 cells, class symbols, read-out: DC50 S5 MOLM-16

Row | Compound | DC50 [1, 4] [µM] | DC50 ([2]; numeric bound) [µM] | DC50 [1, 5] [µM] | DC50 [1, 6] [µM] | DC50 ([2]; class symbols) [µM] | DC50 [1, 3] [µM]
1 | CC(C)(C)[C@H](NC(=O)c1cc2cc(C(F)(F)P(=O)(O)O)ccc2s1)C(=O)N1CCC[C@H]1C(=O)N(CCC(=O)NCCCC#Cc1cccc2c1CN(C1CCC(=O)NC1=O)C2=O)c1ccc(S(C)(=O)=O)cc1 (stereo partly drawn) [Compound 654, ((2-(((2S)-1-((2S)-2-((3-((5-(2-(2,6-dioxopiperidin-3-yl)-1-oxoisoindolin-4-yl)pent-4-yn-1-yl)amino)-3-oxopropyl)(4-(methylsulfonyl)phenyl)carbamoyl)pyrrolidin-1-yl)-3,3-dimethyl-1-oxobutan-2-yl)carbamoyl)benzo[b]thiophen-5-yl)difluoromethyl)phosphonic acid] | > 10 | > 0.3 | – | – | – | > 0.3
2 | Cc1ncsc1-c1ccc([C@H](CC(=O)NCCCCCCCCC(=O)N[C@@H]2C[C@@H](C(=O)Nc3ncc(-c4ccccc4)s3)N(C(=O)[C@@H](NC(=O)c3cc4cc(C(F)(F)P(=O)(O)O)ccc4s3)C(C)(C)C)C2)NC(=O)[C@@H]2C[C@@H](O)CN2C(=O)[C@@H](NC(=O)C2(F)CC2)C(C)(C)C)cc1 [Compound 578, (difluoro(2-(((S)-1-((2S,4R)-4-(9-((S)-3-((2S,4R)-1-((S)-2-(1-fluorocyclopropane-1-carboxamido)-3,3-dimethylbutanoyl)-4-hydroxypyrrolidine-2-carboxamido)-3-(4-(4-methylthiazol-5-yl)phenyl)propanamido)nonanamido)-2-((5-phenylthiazol-2-yl)carbamoyl)pyrrolidin-1-yl)-3,3-dimethyl-1-oxobutan-2-yl)carbamoyl)benzo[b]thiophen-5-yl)methyl)phosphonic acid] | – | > 0.3 | – | – | – | > 0.3
3 | Cc1ncsc1-c1ccc([C@H](CC(=O)NCCCCCCCC(=O)N[C@@H]2C[C@@H](C(=O)Nc3ncc(-c4ccccc4)s3)N(C(=O)[C@@H](NC(=O)c3cc4cc(C(F)(F)P(=O)(O)O)ccc4s3)C(C)(C)C)C2)NC(=O)[C@@H]2C[C@@H](O)CN2C(=O)[C@@H](NC(=O)C2(F)CC2)C(C)(C)C)cc1 [Compound 577, (difluoro(2-(((S)-1-((2S,4R)-4-(8-((S)-3-((2S,4R)-1-((S)-2-(1-fluorocyclopropane-1-carboxamido)-3,3-dimethylbutanoyl)-4-hydroxypyrrolidine-2-carboxamido)-3-(4-(4-methylthiazol-5-yl)phenyl)propanamido)octanamido)-2-((5-phenylthiazol-2-yl)carbamoyl)pyrrolidin-1-yl)-3,3-dimethyl-1-oxobutan-2-yl)carbamoyl)benzo[b]thiophen-5-yl)methyl)phosphonic acid] | – | > 0.3 | – | – | – | > 0.3
4 | CC(C)(C)[C@H](NC(=O)c1cc2cc(C(F)(F)P(=O)(O)O)ccc2s1)C(=O)N1CCC[C@H]1C(=O)N(CCC(=O)NCCCC#Cc1cccc2c1CN(C1CCC(=O)NC1=O)C2=O)c1ccc2sccc2c1 (stereo partly drawn) [Compound 650, ((2-(((2S)-1-((2S)-2-(benzo[b]thiophen-5-yl(3-((5-(2-(2,6-dioxopiperidin-3-yl)-1-oxoisoindolin-4-yl)pent-4-yn-1-yl)amino)-3-oxopropyl)carbamoyl)pyrrolidin-1-yl)-3,3-dimethyl-1-oxobutan-2-yl)carbamoyl)benzo[b]thiophen-5-yl)difluoromethyl)phosphonic acid] | 0.1 to 1 | > 0.3 | 0.1 to 1 | < 0.1 | – | –
5 | CC(C)(C)[C@H](NC(=O)c1cc2cc(C(F)(F)P(=O)(O)O)ccc2s1)C(=O)N1C[C@@H](OCCCCCC#Cc2cccc3c2CN(C2CCC(=O)NC2=O)C3=O)C[C@H]1C(=O)N1CCO[C@H](c2ccccc2)C1 (stereo partly drawn) [Compound 593, ((2-(((2S)-1-((2S,4S)-4-((7-(2-(2,6-dioxopiperidin-3-yl)-1-oxoisoindolin-4-yl)hept-6-yn-1-yl)oxy)-2-((R)-2-phenylmorpholine-4-carbonyl)pyrrolidin-1-yl)-3,3-dimethyl-1-oxobutan-2-yl)carbamoyl)benzo[b]thiophen-5-yl)difluoromethyl)phosphonic acid] | – | – | – | > 10 | < 0.1 | –
6 | Cc1ncsc1-c1ccc([C@H](CC(=O)NCCOCCOCCOCCC(=O)N[C@@H]2C[C@@H](C(=O)Nc3ncc(-c4ccccc4)s3)N(C(=O)[C@@H](NC(=O)c3cc4cc(C(F)(F)P(=O)(O)O)ccc4s3)C(C)(C)C)C2)NC(=O)[C@@H]2C[C@@H](O)CN2C(=O)[C@@H](NC(=O)C2(F)CC2)C(C)(C)C)cc1 [Compound 582, (difluoro(2-(((S)-1-((2S,4R)-4-((S)-1-((2S,4R)-1-((S)-2-(1-fluorocyclopropane-1-carboxamido)-3,3-dimethylbutanoyl)-4-hydroxypyrrolidin-2-yl)-3-(4-(4-methylthiazol-5-yl)phenyl)-1,5-dioxo-9,12,15-trioxa-2,6-diazaoctadecan-18-amido)-2-((5-phenylthiazol-2-yl)carbamoyl)pyrrolidin-1-yl)-3,3-dimethyl-1-oxobutan-2-yl)carbamoyl)benzo[b]thiophen-5-yl)methyl)phosphonic acid] | – | > 0.3 | – | – | – | > 0.3

Further lines, with some results ahead:

Row | DC50 [1, 4] [µM] | DC50 ([2]; numeric bound) [µM] | DC50 [1, 5] [µM] | DC50 [1, 6] [µM] | DC50 ([2]; class symbols) [µM] | Compound | DC50 [1, 3] [µM]
7 | 0.1 to 1 | > 0.3 | 0.1 to 1 | < 0.1 | – | CC(C)(C)[C@H](NC(=O)c1cc2cc(C(F)(F)P(=O)(O)O)ccc2s1)C(=O)N1CCC[C@H]1C(=O)N(CCC(=O)NCCCC#Cc1cccc2c1CN(C1CCC(=O)NC1=O)C2=O)c1ccc(-c2nccs2)cc1 (stereo partly drawn) [Compound 655, ((2-(((2S)-1-((2S)-2-((3-((5-(2-(2,6-dioxopiperidin-3-yl)-1-oxoisoindolin-4-yl)pent-4-yn-1-yl)amino)-3-oxopropyl)(4-(thiazol-2-yl)phenyl)carbamoyl)pyrrolidin-1-yl)-3,3-dimethyl-1-oxobutan-2-yl)carbamoyl)benzo[b]thiophen-5-yl)difluoromethyl)phosphonic acid] | –
8 | 0.1 to 1 | > 0.3 | 0.1 to 1 | < 0.1 | – | CC(C)(C)[C@H](NC(=O)c1cc2cc(C(F)(F)P(=O)(O)O)ccc2s1)C(=O)N1CCC[C@H]1C(=O)N(CCC(=O)NCCCC#Cc1cccc2c1CN(C1CCC(=O)NC1=O)C2=O)c1ccc2ccccc2c1 (stereo partly drawn) [Compound 656, ((2-(((2S)-1-((2S)-2-((3-((5-(2-(2,6-dioxopiperidin-3-yl)-1-oxoisoindolin-4-yl)pent-4-yn-1-yl)amino)-3-oxopropyl)(naphthalen-2-yl)carbamoyl)pyrrolidin-1-yl)-3,3-dimethyl-1-oxobutan-2-yl)carbamoyl)benzo[b]thiophen-5-yl)difluoromethyl)phosphonic acid] | –
9 | 1 to 10 | > 0.3 | 1 to 10 | – | – | CC(C)(C)[C@H](NC(=O)c1cc2cc(C(F)(F)P(=O)(O)O)ccc2s1)C(=O)N1CCC[C@H]1C(=O)N(CCC(=O)N1CC(CCC#Cc2cccc3c2CN(C2CCC(=O)NC2=O)C3=O)C1)c1ccc(Br)cc1 (stereo partly drawn) [Compound 666, ((2-(((2S)-1-((2S)-2-((4-bromophenyl)(3-(3-(4-(2-(2,6-dioxopiperidin-3-yl)-1-oxoisoindolin-4-yl)but-3-yn-1-yl)azetidin-1-yl)-3-oxopropyl)carbamoyl)pyrrolidin-1-yl)-3,3-dimethyl-1-oxobutan-2-yl)carbamoyl)benzo[b]thiophen-5-yl)difluoromethyl)phosphonic acid] | > 0.3
